According to ChEMBL document CHEMBL3352486, “Design, synthesis and biological evaluation of metronidazole-thiazole derivatives as antibacterial inhibitors” (Bioorg Med Chem Lett, 2014):
Converted amounts (≈) assume the structure as drawn.

system: not listed separately; assay: Cytotoxicity against human macrophages assessed as drug level causing microscopically detectable alteration in normal cell morphology after 24 hrs by MTT assay; type: cell-based, Macrophage

`Cc1ncc([N+](=O)[O-])n1CCOc1ccc(/C=N/Nc2nc(-c3ccccc3Br)cs2)cc1` and `Cc1ncc([N+](=O)[O-])n1CCOc1ccc(/C=N/Nc2nc(-c3ccccc3)cs2)cc1` are within 1.5-fold of each other in CC50 at 24 h: 322 µg/mL for the first, 467 µg/mL for the second.

Compared with `Cc1ncc([N+](=O)[O-])n1CCOc1cccc(/C=N/Nc2nc(-c3ccc(C(F)(F)F)cc3)cs2)c1`, `Cc1ncc([N+](=O)[O-])n1CCOc1ccc(/C=N/Nc2nc(-c3ccc(C(F)(F)F)cc3)cs2)cc1` is 2.4-fold lower in CC50 at 24 h: 517 µg/mL for the first, 218 µg/mL for the second.

`COc1ccc(-c2csc(N/N=C/c3cccc(OCCn4c([N+](=O)[O-])cnc4C)c3)n2)cc1` and `COc1ccc(-c2csc(N/N=C/c3ccc(OCCn4c([N+](=O)[O-])cnc4C)cc3)n2)cc1` are within 1.5-fold of each other in CC50 at 24 h: 238 µg/mL for the first, 268 µg/mL for the second.

system: Pseudomonas aeruginosa; assay: Antibacterial activity against Pseudomonas aeruginosa after 24 hrs by MTT method; type: functional, organism-based

`Cc1ncc([N+](=O)[O-])n1CCOc1cccc(/C=N\NC(N)=S)c1` and `Cc1ncc([N+](=O)[O-])n1CCOc1ccc(/C=N\NC(N)=S)cc1` are within 1.5-fold of each other in IC50: 85.6 µg/mL (≈ 246 µM) for the first, 98.3 µg/mL (≈ 282 µM) for the second.

First: Cc1ncc([N+](=O)[O-])n1CCOc1ccc(/C=N/Nc2nc(-c3ccccc3Br)cs2)cc1
Second: Cc1ncc([N+](=O)[O-])n1CCOc1cccc(/C=N/Nc2nc(-c3ccccc3Br)cs2)c1
The IC50 of the first is 3.3-fold lower: 20.6 µg/mL (≈ 39.1 µM) for the first, 67.7 µg/mL (≈ 128 µM) for the second.

Compared with `Cc1ncc([N+](=O)[O-])n1CCOc1cccc(/C=N/Nc2nc(-c3ccc(C(F)(F)F)cc3)cs2)c1`, `Cc1ncc([N+](=O)[O-])n1CCOc1ccc(/C=N/Nc2nc(-c3ccc(C(F)(F)F)cc3)cs2)cc1` is 27-fold higher in IC50: 3.6 µg/mL (≈ 6.97 µM) for the first, 98 µg/mL (≈ 190 µM) for the second.

First: Cc1ncc([N+](=O)[O-])n1CCOc1cccc(/C=N/Nc2nc(-c3ccc(Br)cc3)cs2)c1
Second: COc1ccc(-c2csc(N/N=C/c3cccc(OCCn4c([N+](=O)[O-])cnc4C)c3)n2)cc1
The IC50 of the first is 7.8-fold higher: 83.9 µg/mL (≈ 159 µM) for the first, 10.8 µg/mL (≈ 22.6 µM) for the second.

Going from `Cc1ncc([N+](=O)[O-])n1CCOc1cccc(/C=N/Nc2nc(-c3ccccc3)cs2)c1` to `Cc1ncc([N+](=O)[O-])n1CCOc1ccc(/C=N/Nc2nc(-c3ccccc3)cs2)cc1`, the IC50 rises from 21.6 µg/mL (≈ 48.2 µM) to 38.2 µg/mL (≈ 85.2 µM) (1.8-fold).

Going from `Cc1ncc([N+](=O)[O-])n1CCOc1ccc(/C=N/Nc2nc(-c3ccc(Br)cc3)cs2)cc1` to `COc1ccc(-c2csc(N/N=C/c3ccc(OCCn4c([N+](=O)[O-])cnc4C)cc3)n2)cc1`, the IC50 falls from 85.3 µg/mL (≈ 162 µM) to 6.3 µg/mL (≈ 13.2 µM) (14-fold).

system: Escherichia coli; assay: Antibacterial activity against Escherichia coli after 24 hrs by MTT method; type: functional, organism-based

`Cc1ncc([N+](=O)[O-])n1CCOc1cccc(/C=N\NC(N)=S)c1` and `Cc1ncc([N+](=O)[O-])n1CCOc1ccc(/C=N\NC(N)=S)cc1` are within 1.5-fold of each other in IC50: 89.7 µg/mL (≈ 257 µM) for the first, 111 µg/mL (≈ 318 µM) for the second.

Going from `Cc1ncc([N+](=O)[O-])n1CCOc1ccc(/C=N/Nc2nc(-c3ccccc3Br)cs2)cc1` to `Cc1ncc([N+](=O)[O-])n1CCOc1cccc(/C=N/Nc2nc(-c3ccccc3Br)cs2)c1`, the IC50 rises from 26.9 µg/mL (≈ 51 µM) to 75.2 µg/mL (≈ 143 µM) (2.8-fold).

`Cc1ncc([N+](=O)[O-])n1CCOc1cccc(/C=N/Nc2nc(-c3ccc(C(F)(F)F)cc3)cs2)c1` and `Cc1ncc([N+](=O)[O-])n1CCOc1ccc(/C=N/Nc2nc(-c3ccc(C(F)(F)F)cc3)cs2)cc1` are within 1.5-fold of each other in IC50: 48.8 µg/mL (≈ 94.5 µM) for the first, 41.2 µg/mL (≈ 79.8 µM) for the second.

First: Cc1ncc([N+](=O)[O-])n1CCOc1cccc(/C=N/Nc2nc(-c3ccc(Br)cc3)cs2)c1
Second: COc1ccc(-c2csc(N/N=C/c3cccc(OCCn4c([N+](=O)[O-])cnc4C)c3)n2)cc1
The IC50 of the first is 3.4-fold higher: 98.3 µg/mL (≈ 186 µM) for the first, 28.8 µg/mL (≈ 60.2 µM) for the second.

`Cc1ncc([N+](=O)[O-])n1CCOc1cccc(/C=N/Nc2nc(-c3ccccc3)cs2)c1` and `Cc1ncc([N+](=O)[O-])n1CCOc1ccc(/C=N/Nc2nc(-c3ccccc3)cs2)cc1` are within 1.5-fold of each other in IC50: 48.6 µg/mL (≈ 108 µM) for the first, 38.3 µg/mL (≈ 85.4 µM) for the second.

`Cc1ncc([N+](=O)[O-])n1CCOc1ccc(/C=N/Nc2nc(-c3ccc(Br)cc3)cs2)cc1` and `COc1ccc(-c2csc(N/N=C/c3ccc(OCCn4c([N+](=O)[O-])cnc4C)cc3)n2)cc1` are within 1.5-fold of each other in IC50: 43.3 µg/mL (≈ 82.1 µM) for the first, 50.8 µg/mL (≈ 106 µM) for the second.

Molecule `NC[C@H]1O[C@H](O[C@H]2[C@H](O)[C@@H](O[C@H]3O[C@H](CO)[C@@H](O)[C@H](N)[C@H]3O)[C@H](N)C[C@@H]2N)[C@H](O)[C@@H](O)[C@@H]1O` [KANAMYCIN] has an IC50 of 46.3 µg/mL (≈ 95.6 µM).

system: Bacillus subtilis; assay: Antibacterial activity against Bacillus subtilis after 24 hrs by MTT method; type: functional, organism-based

`Cc1ncc([N+](=O)[O-])n1CCOc1cccc(/C=N\NC(N)=S)c1` and `Cc1ncc([N+](=O)[O-])n1CCOc1ccc(/C=N\NC(N)=S)cc1` are within 1.5-fold of each other in IC50: 96.3 µg/mL (≈ 276 µM) for the first, 103 µg/mL (≈ 296 µM) for the second.

First: Cc1ncc([N+](=O)[O-])n1CCOc1ccc(/C=N/Nc2nc(-c3ccccc3Br)cs2)cc1
Second: Cc1ncc([N+](=O)[O-])n1CCOc1cccc(/C=N/Nc2nc(-c3ccccc3Br)cs2)c1
The IC50 of the first is 1.8-fold higher: 27.6 µg/mL (≈ 52.3 µM) for the first, 15.5 µg/mL (≈ 29.4 µM) for the second.

First: Cc1ncc([N+](=O)[O-])n1CCOc1cccc(/C=N/Nc2nc(-c3ccc(C(F)(F)F)cc3)cs2)c1
Second: Cc1ncc([N+](=O)[O-])n1CCOc1ccc(/C=N/Nc2nc(-c3ccc(C(F)(F)F)cc3)cs2)cc1
The IC50 of the first is 8.9-fold lower: 3.7 µg/mL (≈ 7.16 µM) for the first, 32.8 µg/mL (≈ 63.5 µM) for the second.

Going from `Cc1ncc([N+](=O)[O-])n1CCOc1cccc(/C=N/Nc2nc(-c3ccc(Br)cc3)cs2)c1` to `COc1ccc(-c2csc(N/N=C/c3cccc(OCCn4c([N+](=O)[O-])cnc4C)c3)n2)cc1`, the IC50 falls from 117 µg/mL (≈ 223 µM) to 1.9 µg/mL (≈ 3.97 µM) (62-fold).

First: Cc1ncc([N+](=O)[O-])n1CCOc1cccc(/C=N/Nc2nc(-c3ccccc3)cs2)c1
Second: Cc1ncc([N+](=O)[O-])n1CCOc1ccc(/C=N/Nc2nc(-c3ccccc3)cs2)cc1
The IC50 of the first is 9-fold higher: 118 µg/mL (≈ 264 µM) for the first, 13.1 µg/mL (≈ 29.2 µM) for the second.

First: Cc1ncc([N+](=O)[O-])n1CCOc1ccc(/C=N/Nc2nc(-c3ccc(Br)cc3)cs2)cc1
Second: COc1ccc(-c2csc(N/N=C/c3ccc(OCCn4c([N+](=O)[O-])cnc4C)cc3)n2)cc1
The IC50 of the first is 5.1-fold higher: 98.8 µg/mL (≈ 187 µM) for the first, 19.4 µg/mL (≈ 40.5 µM) for the second.

system: Bacillus thuringiensis; assay: Antibacterial activity against Bacillus thuringiensis after 24 hrs by MTT method; type: functional, organism-based

`Cc1ncc([N+](=O)[O-])n1CCOc1cccc(/C=N\NC(N)=S)c1` and `Cc1ncc([N+](=O)[O-])n1CCOc1ccc(/C=N\NC(N)=S)cc1` are within 1.5-fold of each other in IC50: 78.6 µg/mL (≈ 226 µM) for the first, 88.4 µg/mL (≈ 254 µM) for the second.

Going from `Cc1ncc([N+](=O)[O-])n1CCOc1ccc(/C=N/Nc2nc(-c3ccccc3Br)cs2)cc1` to `Cc1ncc([N+](=O)[O-])n1CCOc1cccc(/C=N/Nc2nc(-c3ccccc3Br)cs2)c1`, the IC50 falls from 88.4 µg/mL (≈ 168 µM) to 58.7 µg/mL (≈ 111 µM) (1.5-fold).

`Cc1ncc([N+](=O)[O-])n1CCOc1cccc(/C=N/Nc2nc(-c3ccc(C(F)(F)F)cc3)cs2)c1` and `Cc1ncc([N+](=O)[O-])n1CCOc1ccc(/C=N/Nc2nc(-c3ccc(C(F)(F)F)cc3)cs2)cc1` are within 1.5-fold of each other in IC50: 73 µg/mL (≈ 141 µM) for the first, 78.8 µg/mL (≈ 153 µM) for the second.

First: Cc1ncc([N+](=O)[O-])n1CCOc1cccc(/C=N/Nc2nc(-c3ccc(Br)cc3)cs2)c1
Second: COc1ccc(-c2csc(N/N=C/c3cccc(OCCn4c([N+](=O)[O-])cnc4C)c3)n2)cc1
The IC50 of the first is 17-fold higher: 98 µg/mL (≈ 186 µM) for the first, 5.9 µg/mL (≈ 12.3 µM) for the second.

Compared with `Cc1ncc([N+](=O)[O-])n1CCOc1cccc(/C=N/Nc2nc(-c3ccccc3)cs2)c1`, `Cc1ncc([N+](=O)[O-])n1CCOc1ccc(/C=N/Nc2nc(-c3ccccc3)cs2)cc1` is 3.5-fold lower in IC50: 53.7 µg/mL (≈ 120 µM) for the first, 15.5 µg/mL (≈ 34.6 µM) for the second.

Going from `Cc1ncc([N+](=O)[O-])n1CCOc1ccc(/C=N/Nc2nc(-c3ccc(Br)cc3)cs2)cc1` to `COc1ccc(-c2csc(N/N=C/c3ccc(OCCn4c([N+](=O)[O-])cnc4C)cc3)n2)cc1`, the IC50 falls from 66.9 µg/mL (≈ 127 µM) to 26.2 µg/mL (≈ 54.8 µM) (2.6-fold).

molecular target: T1, Beta-ketoacyl-[acyl-carrier-protein] synthase III (Escherichia coli K-12, UniProt P0A6R0); assay: Inhibition of Escherichia coli FabH
T1 sequence (P0A6R0 whole entry): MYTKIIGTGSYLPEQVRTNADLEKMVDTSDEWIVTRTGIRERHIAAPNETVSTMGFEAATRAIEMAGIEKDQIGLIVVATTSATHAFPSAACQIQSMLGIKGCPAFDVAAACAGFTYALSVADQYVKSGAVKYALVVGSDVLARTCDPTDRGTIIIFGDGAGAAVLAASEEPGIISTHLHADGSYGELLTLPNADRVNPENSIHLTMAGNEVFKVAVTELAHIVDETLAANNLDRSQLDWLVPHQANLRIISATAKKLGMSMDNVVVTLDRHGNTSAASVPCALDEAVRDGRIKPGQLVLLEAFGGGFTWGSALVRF

Compared with `Cc1ncc([N+](=O)[O-])n1CCOc1ccc(/C=N/Nc2nc(-c3ccccc3Br)cs2)cc1`, `Cc1ncc([N+](=O)[O-])n1CCOc1cccc(/C=N/Nc2nc(-c3ccccc3Br)cs2)c1` is 7.4-fold higher in IC50: 4.9 µM for the first, 36.2 µM for the second. The first is the more potent here.

Compared with `Cc1ncc([N+](=O)[O-])n1CCOc1cccc(/C=N/Nc2nc(-c3ccc(C(F)(F)F)cc3)cs2)c1`, `Cc1ncc([N+](=O)[O-])n1CCOc1ccc(/C=N/Nc2nc(-c3ccc(C(F)(F)F)cc3)cs2)cc1` is 1.9-fold lower in IC50: 13.5 µM for the first, 7.2 µM for the second.

Compared with `Cc1ncc([N+](=O)[O-])n1CCOc1cccc(/C=N/Nc2nc(-c3ccc(Br)cc3)cs2)c1`, `COc1ccc(-c2csc(N/N=C/c3cccc(OCCn4c([N+](=O)[O-])cnc4C)c3)n2)cc1` is 2.3-fold lower in IC50: 20.8 µM for the first, 9.2 µM for the second.

Going from `Cc1ncc([N+](=O)[O-])n1CCOc1cccc(/C=N/Nc2nc(-c3ccccc3)cs2)c1` to `Cc1ncc([N+](=O)[O-])n1CCOc1ccc(/C=N/Nc2nc(-c3ccccc3)cs2)cc1`, the IC50 falls from 8.6 µM to 5.2 µM (1.7-fold).

`Cc1ncc([N+](=O)[O-])n1CCOc1ccc(/C=N/Nc2nc(-c3ccc(Br)cc3)cs2)cc1` and `COc1ccc(-c2csc(N/N=C/c3ccc(OCCn4c([N+](=O)[O-])cnc4C)cc3)n2)cc1` are within 1.5-fold of each other in IC50: 6.2 µM for the first, 6.1 µM for the second.

Work on `NC[C@H]1O[C@H](O[C@H]2[C@H](O)[C@@H](O[C@H]3O[C@H](CO)[C@@H](O)[C@H](N)[C@H]3O)[C@H](N)C[C@@H]2N)[C@H](O)[C@@H](O)[C@@H]1O` [KANAMYCIN] yielded an IC50 of 6.8 µM.
